The values that follow are results of earlier work, collected in patent US20220023398A1, “COMPOSITIONS AND METHODS FOR TREATING THYROID DISEASE” (Script Essentials, LLC, priority 2015, published 2022).

The structures appear in SMILES notation.

The conditions of data set [1]: supplementation, even in selenium sufficient patients.
For data set [2] the following is noted: after oral supplementation.
Setting [3] is: participants with low T3, normal T4.

For the compound `[Se]` [selenium], the “thyroid peroxidase (TPO) antibody levels in the blood” value in data set [1] was “reduced”.
In the case of `O=S(=O)([O-])[O-].[Zn+2]` [zinc sulfate], in data set [2] (setting [3]), the TSH entry is on record as “normalized” and the “reverse T3 (rT3)” value is reported as “decreased”. Besides, the “levels of T3” value in data set [2] (participants with low T3, normal T4, mild to moderate zinc deficiency) was “normalized”.
